In patent US8778929B2, “Substituted heteroaryl inhibitors of B-RAF” (Boehringer Ingelheim International GmbH, priority 2008, dated 2014):

Target: B-Raf (V600E)-kinase (Homo sapiens, UniProt P15056, V600E)
Assay: Kinase test B-Raf (V600E)
Type: biochemical
Conditions: 100% = no inhibition, 0% = total inhibition, read-out: % CTL (residual activity of the enzyme relative to DMSO control); for remaining activity at 2 µM: compound concentration 2 μM
Procedure: In a dilution series 10 μL of test substance solution are placed in a multiwell plate. The dilution series is selected so that generally a range of concentrations of 2 μM to 0.119 nM or 0.017 nM is covered. If necessary the initial concentration of 2 μM is changed to 50 μM, 10 μM or 0.4 μM or 0.2857 μM and further dilution is carried out accordingly. The final concentration of DMSO is 5%. 10 μL of the B-Raf (V600E)-kinase solution are pipetted in (containing 0.5 ng B-Raf (V600E)-kinase in 20 mM Tris-HCl pH 7.5, 0.1 mM EDTA, 0.1 mM EGTA, 0.286 mM sodium orthovanadate, 10% glycerol, 1 mg/mL bovine serum albumin, 1 mM dithiothreitol) and the mixture is incubated for 1 h at RT under with shaking The kinase reaction is started by the addition of 20 μL ATP solution [final concentration: 250 μM ATP, 30 mM Tris-HCl pH 7.5, 0.02% Brij, 0.2 mM sodium orthovanadate, 10 mM magnesium acetate, 0.1 mM EGTA, phosphatase cocktail (Sigma, # P2850, dilution recommended by the manufacturer), 0.1 mM EGTA] and 10 μL MEK1 solution [containing 50 ng biotinylated MEK1 (prepared from purified MEK1 according to standard procedure, e.g. with EZ-Link Sulpho-NHS-LC-Biotin reagent, Pierce, # 21335) and carried out for 60 min at RT with constant shaking. The reaction is stopped by the addition of 12 μL of a 100 mM EDTA solution and incubation is continued for a further 5 min. 55 μL of the reaction solution are transferred into a streptavidin-coated plate (e.g. Streptawell HighBond, Roche, #11989685001) and shaken gently for 1 h at RT, in order to bind biotinylated MEK1 to the plate. After elimination of the liquid the plate is washed five times with 200 μL of 1×PBS and 100 μL solution of primary antibody plus europium-labelled secondary antibody [Anti Phospho-MEK (Ser217/221), Cell Signaling, # 9121 and Eu-N1 labeled goat-anti-rabbit antibody, Perkin Elmer, #AD0105], the primary antibody is diluted 1:2000 and the secondary antibody is diluted to 0.4-0.5 μg/mL in Delfia Assay Buffer (Perkin Elmer, #1244-111). After 1 h shaking at RT the solution is poured away and washed five times with 200 μL Delfia Wash Buffer (Perkin Elmer, #4010-0010/#1244-114). After the addition of 200 μL Enhancement Solution (Perkin Elmer, #4001-0010/#1244-105) the mixture is shaken for 10 min at RT and then measured in a Wallac Victor using the program “Delfia Time Resolved Fluorescence (Europium)”. IC50 values are obtained from these dosage-activity curves using a software program (GraphPadPrizm).
A value of 100% indicates no inhibition while a value of 0% indicates total inhibition. The % CTL values denote the residual activity of the enzyme after the addition of the inhibitory compound in the solvent DMSO in relation to the enzyme activity in the solvent DMSO without the addition of a compound (control). The values were determined using the B-Raf(V600E)-kinase test described above.

Chain of B-Raf (V600E)-kinase (P15056 whole entry V600E): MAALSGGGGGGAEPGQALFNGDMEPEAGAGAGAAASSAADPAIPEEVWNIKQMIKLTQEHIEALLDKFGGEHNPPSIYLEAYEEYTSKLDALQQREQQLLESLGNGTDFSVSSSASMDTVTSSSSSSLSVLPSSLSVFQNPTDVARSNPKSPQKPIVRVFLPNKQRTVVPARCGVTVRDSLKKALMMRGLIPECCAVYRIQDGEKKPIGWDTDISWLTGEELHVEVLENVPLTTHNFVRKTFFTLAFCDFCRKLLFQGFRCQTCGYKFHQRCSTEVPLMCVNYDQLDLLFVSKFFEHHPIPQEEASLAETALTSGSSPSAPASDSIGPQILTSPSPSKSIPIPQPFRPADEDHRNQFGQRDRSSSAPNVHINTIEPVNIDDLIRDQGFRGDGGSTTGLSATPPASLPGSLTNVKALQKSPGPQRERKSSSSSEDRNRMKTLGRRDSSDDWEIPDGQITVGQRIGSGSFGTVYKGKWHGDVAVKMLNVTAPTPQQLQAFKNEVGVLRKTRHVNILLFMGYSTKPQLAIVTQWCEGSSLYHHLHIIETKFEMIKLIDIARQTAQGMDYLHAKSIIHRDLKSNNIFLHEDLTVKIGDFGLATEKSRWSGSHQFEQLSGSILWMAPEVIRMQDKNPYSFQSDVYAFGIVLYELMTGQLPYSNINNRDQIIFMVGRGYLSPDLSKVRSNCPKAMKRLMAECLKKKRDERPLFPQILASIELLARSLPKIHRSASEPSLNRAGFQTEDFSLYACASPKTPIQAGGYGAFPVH

SMILES	remaining activity at 2 µM [%]	remaining activity at 0.29 µM (measurement at 0.29 μM (*)) [%]
Cc1ncc(C(=O)Nc2cc(C(C)(C)C)on2)cc1-n1cc(-c2cncc(NC3CCOCC3)c2)nn1 [Example I-40]	1.4	
Cc1ncc(C(=O)Nc2cc(C(C)(C)C)on2)cc1-n1cc(-c2cncc(CN3CCN(C(C)C)CC3)c2)nn1 [Example I-190]	4.1	
Cc1ncc(C(=O)Nc2cc(C(C)(C)C)on2)cc1-n1cc(-c2cncc(N3CCN(CCO)CC3)c2)nn1 [Example I-179]	2.6	
Cc1ncc(NC(=O)c2cc(C(F)(F)F)ccn2)cc1-n1cc(-c2cncc(N3CCN(C(C)C)CC3)c2)nn1 [XII-35]	1.7	
COc1c(CNC(C)C)cc(NC(=O)c2cnc(C)c(-n3cc(-c4cnc5cnc(C)cn45)nn3)c2)cc1C(F)(F)F [Example I-50]	2.2	
Cc1cn2c(-c3cn(-c4cc(C(=O)Nc5cc(C(C)(C)C)nn5C)cnc4C)nn3)cnc2cn1 [Example I-30]	6.9	
Cc1ncc(C(=O)Nc2cc(C(C)(C)C)ncn2)cc1-n1cc(-c2cncc(N3CCN(C(C)C)CC3)c2)nn1 [Example I-155]	2.6	
Cc1ncc(NC(=O)c2cccc(C(C)(C)C#N)c2)cc1-n1cc(-c2cnn(C)c2C)nn1 [XII-6]	4.7	
COCCN1CCN(c2cc(OC(F)(F)F)cc(C(=O)Nc3cnc(C)c(-n4cc(-c5cnn(C)c5C)nn4)c3)c2)CC1 [XII-24]	3.8	
Cc1ncc(C(=O)Nc2cc(C(F)(F)F)ccn2)cc1-n1cc(-c2cnn(C)c2C)nn1 [Example I-2]	8	
Cc1ncc(C(=O)Nc2cc(CN(C)C)c(C)c(C(F)(F)F)c2)cc1-n1cc(-c2cnn(C)c2C)nn1 [Example I-93]	3.5	
COc1c(CO)cc(NC(=O)c2cnc(C)c(-n3cc(-c4cnn(C)c4C)nn3)c2)cc1C(F)(F)F [Example I-113]	2.9	
Cc1ncc(C(=O)Nc2cc(C(F)(F)F)ccn2)cc1-n1cc(-c2cncnc2)nn1 [Example I-23]	5.9	
CCOCCN1CCN(c2cncc(-c3cn(-c4cc(C(=O)Nc5cc(C(C)(C)C)on5)cnc4C)nn3)c2)CC1 [Example I-170]	7.5	
Cc1ncc(C(=O)Nc2cc(C(F)(F)F)cc(N3CCOCC3)c2C)cc1-n1cc(-c2cnn(C)c2C)nn1 [Example I-122]	1.8	
Cc1ncc(NC(=O)c2cc(N3CCN(C)CC3)c(F)c(C(F)(F)F)c2)cc1-n1cc(-c2cnn(C)c2C)nn1 [XII-5]	1.8	
Cc1ncc(C(=O)Nc2cc(C(C)(C)C)on2)cc1-n1cc(-c2cncc(N3CCCN(C)CC3)c2)nn1 [Example I-202]	1.6	
Cc1ncc(C(=O)Nc2cc(C(C)(C)C)on2)cc1-n1cc(-c2cncc(N(C)CCN(C)C)c2)nn1 [Example I-141]	2.1	
Cc1ncc(NC(=O)c2cccc(OC(F)(F)F)c2)cc1-n1cc(-c2cncc(N3CCN(C(C)C)CC3)c2)nn1 [XII-42]	4.3	
Cc1ncc(NC(=O)c2cc(C(F)(F)F)ccn2)cc1-n1cc(-c2cncc(N3CCN(C)CC3)c2)nn1 [XII-57]	0.9	
Cc1cn(-c2cc(NC(=O)c3cnc(C)c(-n4cc(-c5cncnc5)nn4)c3)cc(C(F)(F)F)c2)cn1 [Example I-79]	3.6	
Cc1ncc(C(=O)Nc2cc(C(C)(C)C)on2)cc1-n1cc(-c2cncc(N3CCN(CCF)CC3)c2)nn1 [Example I-198]	1.7	
Cc1ncc(C(=O)Nc2cc(C(F)(F)F)ccn2)cc1-n1cc(-c2cncc(N3CCN(C(C)C)CC3)c2)nn1 [Example I-152]	2.4	
Cc1ncc(NC(=O)c2cc(OC(F)(F)F)cc(N3CCN(C)CC3)c2)cc1-n1cc(-c2cccnc2)nn1 [XII-17]	0.9	
Cc1ncc(NC(=O)c2cccc(C(C)(C)C#N)c2)cc1-n1cc(-c2cncc(N3CCN(C)CC3)c2)nn1 [XII-34]	0.8	

SMILES	remaining activity at 2 µM [%]	remaining activity at 0.29 µM (measurement at 0.29 μM (*)) [%]
Cc1ncc(C(=O)Nc2cc(N3CCN(C)CC3)cc(C(F)(F)F)c2)cc1-n1cc(-c2cncnc2)nn1 [Example I-18]	2.4	
Cc1ncc(C(=O)Nc2cc(C(C)(C)C)on2)cc1-n1cc(-c2cncc(N3CCN(CC(F)F)CC3)c2)nn1 [Example I-181]	2.3	
Cc1ncc(C(=O)Nc2cc(C(C)(C)C)on2)cc1-n1cc(-c2cncc(N3CCC4(CCN(C)CC4)CC3)c2)nn1 [Example I-195]	0.8	
COc1ccc(C(=O)Nc2cnc(C)c(-n3cc(-c4cncc(N5CCN(C(C)C)CC5)c4)nn3)c2)cc1C(F)(F)F [XII-43]	2.1	
Cc1ncc(C(=O)Nc2cc(C(C)(C)C)on2)cc1-n1cc(-c2cncc(N3CCCOCC3)c2)nn1 [Example I-36]	1.8	
COc1c(NC(=O)c2cnc(C)c(-n3cc(-c4cnn(C)c4C)nn3)c2)cc(C(C)(C)C)cc1NS(C)(=O)=O [Example I-9]	1.4	
CCN1CCN(c2cc(NC(=O)c3cnc(C)c(-n4cc(-c5cnn(C)c5C)nn4)c3)cc(C(F)(F)F)c2C)CC1 [Example I-57]	2.3	
Cc1ncc(C(=O)Nc2cc(C3=CCNCC3)cc(C(F)(F)F)c2)cc1-n1cc(-c2cnn(C)c2C)nn1 [Example I-88]	1.3	
Cc1ncc(C(=O)Nc2cc(C(C)(C)C)on2)cc1-n1cc(-c2cncc(CN3CC[C@@H](F)C3)c2)nn1 [Example I-192]	1.9	
Cc1ncc(C(=O)Nc2cc(C(C)(C)C)on2)cc1-n1cc(-c2cncc(NCCN(C)C)c2)nn1 [Example I-138]	2.5	
Cc1ncc(NC(=O)c2cc(C(F)(F)F)ccn2)cc1-n1cc(-c2cncc(N3CCN(CC(C)C)CC3)c2)nn1 [XII-37]	2.3	
CCN(C)Cc1cncc(-c2cn(-c3cc(C(=O)Nc4cc(C(C)(C)C)on4)cnc3C)nn2)c1 [Example I-191]	3	
Cc1ncc(C(=O)Nc2cc(CNCC(C)C)cc(C(F)(F)F)c2)cc1-n1cc(-c2cnn(C)c2C)nn1 [Example I-108]	1.7	
CC(=O)Nc1ncc(-c2cn(-c3cc(NC(=O)c4cccc(C(C)(C)C#N)c4)cnc3C)nn2)s1 [XII-14]		0.9
Cc1ncc(C(=O)Nc2cc(C(C)(C)C)on2)cc1-n1cc(-c2cncc(NC3CCN(C(C)C)CC3)c2)nn1 [Example I-199]	1.6	
CCN1CCN(c2cncc(-c3cn(-c4cc(C(=O)Nc5cc(C(C)(C)C)on5)cnc4C)nn3)c2)CC1 [Example I-134]	2.6	
Cc1ncc(C(=O)Nc2cnn(C(C)C)c2)cc1-n1cc(-c2cncc(N3CCN(C(C)C)CC3)c2)nn1 [Example I-150]	4.1	
CCN1CCN(c2cc(NC(=O)c3cnc(C)c(-n4cc(-c5cnc(NC(C)=O)s5)nn4)c3)cc(C(F)(F)F)c2C)CC1 [Example I-48]	1.7	
Cc1ncc(C(=O)Nc2cc(C(C)(C)C)on2)cc1-n1cc(-c2cncc(CN)c2)nn1 [Example I-194]	2.1	
CNCc1cc(NC(=O)c2cnc(C)c(-n3cc(-c4cnn(C)c4C)nn3)c2)cc(C(F)(F)F)c1 [Example I-110]	1.3	
COc1cncc(-c2cn(-c3cc(C(=O)Nc4cc(N5CCN(C)CC5)cc(C(F)(F)F)c4)cnc3C)nn2)c1 [Example I-24]	1	
Cc1ncc(C(=O)Nc2cc(C(C)(C)C)on2)cc1-n1cc(-c2cncc(Br)c2)nn1 [Example I-34]	1.5	
Cc1ncc(C(=O)Nc2cc(CNC(C)C)c(C)c(C(F)(F)F)c2)cc1-n1cc(-c2cnn(C)c2C)nn1 [Example I-132]	1	
Cc1ncc(C(=O)Nc2cc(N3CCCCC3)cc(C(F)(F)F)c2)cc1-n1cc(-c2cnn(C)c2C)nn1 [Example I-74]	9	
Cc1ncc(C(=O)Nc2cc(C(C)(C)C)on2)cc1-n1cc(-c2cncc(NC3CC(N4CCN(C)CC4)C3)c2)nn1 (centres unmarked) [Example I-196]	1	
